Blank lines part the entries; values can stand above or below the compound they belong to.
What was measured:
[1] = Example 1: stability of bilberry extract anthocyanosides, 4 hours at 37° C., pH 7.0, with/without DHLA or GSH (HPLC); format: physicochemical; settings: for % left, GSH (4 hours) / Peak Area, GSH (4 hours): 20 mg reduced L-glutathione; for % left, GSH (4 hours) / Peak Area, GSH (4 hours) / % left, DHLA (4 hours) / Peak Area, DHLA (4 hours) / % left, Blank (4 hours) / Peak Area, Blank (4 hours): pH 7.0, 37° C.; for % left, DHLA (4 hours) / Peak Area, DHLA (4 hours): 30 mg dihydrolipoic acid; for Peak Area, Fresh (0 hours): bilberry extract 60 mg/100 ml sodium phosphate buffer pH 7.0, fresh sample; for % left, Blank (4 hours) / Peak Area, Blank (4 hours): unprotected
Protocol: (0.048 mmol anthocyanosides expressed as cyanidin-3-O-glucoside) were added to a 100 ml flask and filled to volume with sodium phosphate buffer (5% [w/w], pH=7.0), and stirred until dissolution was complete. A 1 ml sample was taken immediately and acidified with formic acid to pH=1.0 and analyzed by HPLC for the content of anthocyanosides (Fresh Sample). The remaining solution was kept for 4 hours at 37° C. (water bath) with stirring. Thereafter another sample (Blank sample), representing unprotected degradation, was taken and acidified.
(0.048 mmol expressed as cyanidin-3-O-glucoside) were then added and the flask was filled to volume with sodium phosphate buffer (5% [w/w], pH=7.0) and kept for 4 hours at 37° C. (water bath) with stirring.
After 4 hours, samples were taken and acidified immediately with formic acid to pH=1.0 and analyzed by HPLC for the content of anthocyanosides. Degradation is expressed as decrease in peak area of individual peaks (calculated as % left after 4 hours).
Quantitation: External standardization based on linear regression analysis. The response factors of all anthocyanosides separated is quantitified against cyanidin-3-O-glucoside.
Test solutions from incubation experiments (with/without cells and with/without stabilizing agents) were used for analysis after stabilization of anthocyanosides with formic acid. Samples were cleared by filtration prior to injection on to HPLC-system.

[2] = Example 2: degradation over time of selected bilberry anthocyanosides at 37° C., pH 7.0, with/without GSH (HPLC); format: physicochemical; settings: pH 7.0, 37° C.; for %-residual anthocyanosides (% left): 4.30 hours
Protocol: Sample a) 60 mg bilberry extract [37% anthocyanosides] (0.048 mmol expressed as cyanidin-3-O-glucoside) were added to a 100 ml, filled to volume with sodium phosphate buffer (5% [w/w], pH=7.0) and stirred until dissolution was complete. A 1 ml sample was immediately taken and acidified with formic acid to pH=1.0 and analyzed by HPLC for the content of anthocyanosides. The remaining solution was kept at 37° C. (water bath) with stirring and additional 1 ml samples (Blank Samples), representing unprotected degradation, were sampled every 15 minutes. The samples were analyzed for selected anthocyanosides by HPLC.
Sample b) 20 mg reduced L-glutathione (0.065 mmol) were added to a 100 ml flask with 60 ml sodium phosphate buffer (5% [w/w], pH=7.0) and stirred until dissolution was complete. 60 mg bilberry extract [37% anthocyanosides] (0.048 mmol expressed as cyanidin-3-O-glucoside) were added and the flask was filled to volume with sodium phosphate buffer (5% [w/w], pH=7.0) and kept at 37° C. (water bath) with stirring. Every 15 minutes, 1 ml samples were taken and analyzed for selected anthocyanosides by HPLC.
Samples were prepared as outlined below in HPLC Analytical Method. Test stability samples were immediately acidified (to block degradation) and injected undiluted following the detailed description provided below.
HPLC Analytical Method (Materials, Instruments and Methods): […]

% left, GSH (4 hours) [1]: 69.4%
Peak Area, GSH (4 hours) [1]: 97.6
% left, DHLA (4 hours) [1]: 66.6%
Peak Area, DHLA (4 hours) [1]: 93.7
Peak Area, Fresh (0 hours) [1]: 140.6
% left, Blank (4 hours) [1]: 16.2%
Peak Area, Blank (4 hours) [1]: 22.8
SMILES: COc1cc(-c2[o+]c3cc(O)cc(O)c3cc2O[C@@H]2OC[C@H](O)[C@H](O)[C@H]2O)cc(O)c1O.[Cl-] [Pt-3O-Ara, Petunidin 3-o-arabinoside]

SMILES: COc1cc(-c2[o+]c3cc(O)cc(O)c3cc2O[C@@H]2O[C@H](CO)[C@H](O)[C@H](O)[C@H]2O)cc(OC)c1O [Mv-3O-Gal, Malvidin 3-o-galactoside]
% left, GSH (4 hours) [1]: 74.4%
Peak Area, GSH (4 hours) [1]: 133.2
% left, DHLA (4 hours) [1]: 62.8%
Peak Area, DHLA (4 hours) [1]: 112.5
Peak Area, Fresh (0 hours) [1]: 179.1
% left, Blank (4 hours) [1]: 37.6%
Peak Area, Blank (4 hours) [1]: 67.3

SMILES: COc1cc(-c2[o+]c3cc(O)cc(O)c3cc2O[C@@H]2OC[C@H](O)[C@H](O)[C@H]2O)cc(OC)c1O [Mv-3O-Ara, Malvidin 3-o-arabinoside]
% left, GSH (4 hours) [1]: 75.0%
Peak Area, GSH (4 hours) [1]: 81.2
% left, DHLA (4 hours) [1]: 69.4%
Peak Area, DHLA (4 hours) [1]: 75.2
Peak Area, Fresh (0 hours) [1]: 108.3
% left, Blank (4 hours) [1]: 34.0%
Peak Area, Blank (4 hours) [1]: 36.8

% left, GSH (4 hours) [1]: 66.7%
Peak Area, GSH (4 hours) [1]: 315.6
% left, DHLA (4 hours) [1]: 57.4%
Peak Area, DHLA (4 hours) [1]: 271.9
Peak Area, Fresh (0 hours) [1]: 473.4
% left, Blank (4 hours) [1]: 16.6%
Peak Area, Blank (4 hours) [1]: 78.8
SMILES: COc1cc(-c2[o+]c3cc(O)cc(O)c3cc2O[C@@H]2O[C@H](CO)[C@@H](O)[C@H](O)[C@H]2O)cc(O)c1O [Pt-3O-Glc, Petunidin 3-o-glucoside]

% left, GSH (4 hours) [1]: 76.9%
Peak Area, GSH (4 hours) [1]: 172.0
% left, DHLA (4 hours) [1]: 62.3%
Peak Area, DHLA (4 hours) [1]: 139.2
Peak Area, Fresh (0 hours) [1]: 223.6
% left, Blank (4 hours) [1]: 42.4%
Peak Area, Blank (4 hours) [1]: 94.8
SMILES: COc1cc(-c2[o+]c3cc(O)cc(O)c3cc2O[C@@H]2O[C@H](CO)[C@@H](O)[C@H](O)[C@H]2O)ccc1O [Pe-3O-Glc, Peonidin 3-o-glucoside]

SMILES: COc1cc(-c2[o+]c3cc(O)cc(O)c3cc2O[C@@H]2O[C@H](CO)[C@@H](O)[C@H](O)[C@H]2O)cc(OC)c1O [Mv-3O-Glc, Malvidin 3-o-glucoside]
% left, GSH (4 hours) [1]: 73.7%
Peak Area, GSH (4 hours) [1]: 336.2
% left, DHLA (4 hours) [1]: 63.0%
Peak Area, DHLA (4 hours) [1]: 287.4
Peak Area, Fresh (0 hours) [1]: 455.9
% left, Blank (4 hours) [1]: 36.1%
Peak Area, Blank (4 hours) [1]: 164.7

% left, GSH (4 hours) [1]: 50.2%
Peak Area, GSH (4 hours) [1]: 283.6
% left, DHLA (4 hours) [1]: 64.5%
Peak Area, DHLA (4 hours) [1]: 364.4
Peak Area, Fresh (0 hours) [1]: 564.9
% left, Blank (4 hours) [1]: 6.9%
Peak Area, Blank (4 hours) [1]: 39.1
SMILES: Oc1cc(O)c2cc(O[C@H]3OC[C@H](O)[C@H](O)[C@H]3O)c(-c3cc(O)c(O)c(O)c3)[o+]c2c1 [Dp-3O-Ara, Delphinidin 3-o-arabinoside]

% left, GSH (4 hours) [1]: 79.5%
Peak Area, GSH (4 hours) [1]: 293.7
% left, DHLA (4 hours) [1]: 70.2%
Peak Area, DHLA (4 hours) [1]: 258.4
Peak Area, Fresh (0 hours) [1]: 369.6
% left, Blank (4 hours) [1]: 38.5%
Peak Area, Blank (4 hours) [1]: 142.3
SMILES: Oc1cc(O)c2cc(O[C@@H]3OC[C@H](O)[C@H](O)[C@H]3O)c(-c3ccc(O)c(O)c3)[o+]c2c1 [Cn-3O-Ara, Cyanidin 3-o-arabinoside]

% left, GSH (4 hours) [1]: 69.3%
Peak Area, GSH (4 hours) [1]: 150.0
% left, DHLA (4 hours) [1]: 61.4%
Peak Area, DHLA (4 hours) [1]: 132.8
Peak Area, Fresh (0 hours) [1]: 216.4
% left, Blank (4 hours) [1]: 18.8%
Peak Area, Blank (4 hours) [1]: 40.7
Peak Area ([2]; Blank Sample, 1:15 h): 124.16
Peak Area ([2]; Blank Sample, 4:15 h): 102.44
Peak Area ([2]; Blank Sample, 4:30 h): 58.78
Peak Area ([2]; Blank sample, 0:00 h): 237.44
Peak Area ([2]; Blank sample, 0:15 h): 179.60
Peak Area ([2]; Blank sample, 0:30 h): 203.39
Peak Area ([2]; Blank sample, 0:45 h): 152.46
Peak Area ([2]; Blank sample, 1:00 h): 161.49
Peak Area ([2]; Blank sample, 1:45 h): 144.59
Peak Area ([2]; Blank sample, 2:00 h): 132.38
Peak Area ([2]; Blank sample, 2:15 h): 121.96
Peak Area ([2]; Blank sample, 2:30 h): 96.36
Peak Area ([2]; Blank sample, 2:45 h): 99.38
Peak Area ([2]; Blank sample, 3:00 h): 127.47
Peak Area ([2]; Blank sample, 3:15 h): 123.02
Peak Area ([2]; Blank sample, 3:30 h): 98.72
Peak Area ([2]; Blank sample, 4:00 h): 107.51
%-residual anthocyanosides (% left) ([2]; Blank): 25%
Peak Area ([2]; GSH Protected Sample (20 mg), 0:30 h): 222.35
Peak Area ([2]; GSH Protected Sample (20 mg), 1:30 h): 202.34
Peak Area ([2]; GSH Protected Sample (20 mg), 2:30 h): 169.36
Peak Area ([2]; GSH Protected Sample (20 mg), 3:30 h): 181.53
Peak Area ([2]; GSH Protected Sample (20 mg), 4:30 h): 181.46
Peak Area ([2]; GSH Protected Sample (20 mg), 4:45 h): 166.84
Peak Area ([2]; GSH protected sample (20 mg), 0:00 h): 248.16
Peak Area ([2]; GSH protected sample (20 mg), 0:15 h): 245.04
Peak Area ([2]; GSH protected sample (20 mg), 0:45 h): 195.63
Peak Area ([2]; GSH protected sample (20 mg), 1:00 h): 213.84
Peak Area ([2]; GSH protected sample (20 mg), 1:15 h): 210.34
Peak Area ([2]; GSH protected sample (20 mg), 1:45 h): 194.88
Peak Area ([2]; GSH protected sample (20 mg), 2:00 h): 193.23
Peak Area ([2]; GSH protected sample (20 mg), 2:15 h): 199.06
Peak Area ([2]; GSH protected sample (20 mg), 2:45 h): 183.97
Peak Area ([2]; GSH protected sample (20 mg), 3:00 h): 189.41
Peak Area ([2]; GSH protected sample (20 mg), 3:15 h): 185.92
Peak Area ([2]; GSH protected sample (20 mg), 3:45 h): 173.03
Peak Area ([2]; GSH protected sample (20 mg), 4:00 h): 193.79
Peak Area ([2]; GSH protected sample (20 mg), 4:15 h): 179.46
%-residual anthocyanosides (% left) ([2]; GSH-protected): 67%
%-residual anthocyanosides (% left) ([2]; GSH-protected, listed as petunidin-3-O-Galactose): 67%
SMILES: COc1cc(-c2[o+]c3cc(O)cc(O)c3cc2OC2OC(CO)C(O)C(O)C2O)cc(O)c1O (stereo not shown) [Pt-3O-Gal, Petunidin 3-o-galactoside]

Source: patent publication US8623429B2, “Stabilized anthocyanin compositions” (Omnica GmbH, priority 2007, dated 2014)
